Experimental data taken from US5385931A, “Sulfonamides derived from benzocyclic or benzoheterocyclic acids, their preparation and application in therapeutics” (Pierre Fabre Medicament, priority 1989, dated 1995).
≈ marks a conversion by molar mass, not a printed value. Each block holds one molecule with its values, some of them ahead of it.

Experiments:
Solubility in water = assay type: physicochemical; conditions: for solubility: read-out: soluble in water to give a solution of
[1] = system: blood platelet aggregation induced by U.46619; experiment: In vitro rabbit platelet aggregation induced by U.46619; assay type: cell-based, New Zealand rabbits; conditions: Oryctolagus cuniculus; rabbit platelet-rich plasma; U.46619 1.05 to 2.44 micromoles; pre-incubated 1 min at 37° C., pH 7.4
Experimental: (§1) Blood is taken from white male New Zealand rabbits which have not received any treatment capable of disrupting the platelet functions.
(§2) After having allowed the first drops to flow freely, the blood is collected in plastic tubes containing 3.8% (wt/v) trisodium citrate 5.5 H2 O, the citrate/blood ratio being 1 volume of citrate per 9 volumes of blood.
(§3) The blood platelet aggregation study is carried out starting from plasmas rich in platelets obtained by centrifuging the above blood samples at low speed. It is measured with the aid of a Mustard aggregometer at a wavelength of 609 nm with a stirring speed of 1,100 revolutions/min.
(§4) The products to be studied are dissolved in polyethylene glycol 300 and pre-incubated for 1 min at 37° C. under a volume of 10 microliters,in a mixture of 300 microliters of plasma rich in platelets and 90 microliters of Tyrode's solution without calcium, pH=7.4. (Corresponding controls are produced by pre-incubating the vehicle on its own instead of solutions of products to be studied).
(§5) The blood platelet aggregation is initiated by the addition either of U.46619 (final concentrations: 1.05 to 2.44 micromoles) or of arachidonic acid (final concentrations: 50 to 100 micromoles).
(§6) Starting from the parameter of the maximum percentage aggregation, the anti-aggregant activity of a product is calculated using the formula: [formula]
One curve: anti-aggregant activity=f (final concentration) is plotted for each product and the 50% inhibitory concentration determined from the graph.
In the case of aggregation with U.46619, the IC50 are given in Table I for compounds 1, 2, 3, 7 and 11 by way of non-limiting example: […]

conventional mice = experiment: Toxicology, intraperitoneal, mice; assay type: in vivo; conditions: 500 mg per kilo intraperitoneally
Experimental: The chemical compounds described above were subjected to toxicity checks. This study was carried out on conventional mice weighing from 20 to 22 g. The compounds of general formula I were administered intraperitoneally.

Solubility in DMSO = assay type: physicochemical
[2] = system: blood platelet aggregation induced by arachidonic acid; experiment: In vitro rabbit platelet aggregation induced by arachidonic acid; assay type: cell-based, New Zealand rabbits; conditions: arachidonic acid 50 to 100 micromoles; for inhibition at 100 µM / inhibition at 10 µM: Oryctolagus cuniculus, Platelet; for inhibition at 100 µM: final concentration of compound 10^-4 M; for inhibition at 10 µM: final concentration of compound 10^-5 M
Experimental: as §1, §2, §3, §4, §5, §6
The percentage inhibition of the aggregation with arachidonic acid is given in Table II for compounds 2 and 3 by way of non-limiting examples: […]

[3] = system: platelet aggregation induced by U.46619; experiment: Ex vivo inhibition of U.46619-induced platelet aggregation after oral administration in rabbits; set-up: species or system New Zealand rabbits; conditions: t=+90 min relative to control curve at t=0
Experimental: b) Ex vivo action: inhibition of anti-aggregant effects using U.46619 in rabbits.
Because of their powerful activity in vitro, the anti-aggregant effects ex vivo were studied in rabbits. The substances of general formula I, which are the subject of the present invention, are administered orally as a 1% suspension in carboxymethylcellulose to natural male New Zealand rabbits weighing 2.5 to 3 kg after going without nourishment for about 18 h. Blood samples were taken by cardiac puncture at time 0 and after 90 min. The aggregant U.46619 was used under the same conditions as above and the measurement of the aggregation was carried out using the same technique.
The results are expressed in Table III in terms of percentage inhibition of the maximum amplitude of the aggregation curve at t=+90 min relative to the control curve at t=0 and are given for compounds 2 and 3 by way of non-limiting example: […]

Compound: O=C(CNS(=O)(=O)c1ccc(Cl)cc1)c1ccc2c(c1)CC(C(=O)O)O2 (stereo not drawn) [Compound 1, 5-(parachlorobenzenesulphonamidoacetyl)-2,3-dihydro-2-benzofurancarboxylicacid]
IC50 [1]: 600 nM
fatality (conventional mice): not a single fatality
toxicity (conventional mice): atoxic
soluble in DMSO to give a solution of (Solubility in DMSO): 10%

Compound: O=C(O)C1Cc2cc(CCNS(=O)(=O)c3ccc(Cl)cc3)ccc2O1 (stereo not drawn) [Compound 2, 5-(2-parachlorobenzenesulphonamidoethyl)-2,3-dihydro-2-benzofurancarboxylic acid]
IC50 [1]: 500 nM
inhibition at 100 µM [2]: -100%
inhibition at 10 µM [2]: -79%
% inhibition of platelet aggregation ([2]; final concentration of compound 5.10^-6 M): -31%
% inhibition of aggregation ([3]; 5 mg/kg orally): -64%
% inhibition of aggregation ([3]; 10 mg/kg orally): -98%
fatality (conventional mice): not a single fatality
toxicity (conventional mice): atoxic
soluble in DMSO to give a solution of (Solubility in DMSO): 10%

Compound: O=C(O)C1Cc2cc(C(O)CNS(=O)(=O)c3ccc(Cl)cc3)ccc2O1 (stereo not drawn) [Compound 3, 5-(2-parachlorobenzenesulphonamido-1-hydroxyethyl)-2,3-dihydro-2-benzofurancarboxylic acid]
IC50 [1]: 5000 nM
inhibition at 100 µM [2]: -86%
inhibition at 10 µM [2]: -7%
% inhibition of platelet aggregation ([2]; final concentration of compound 5.10^-5 M): -78%
% inhibition of aggregation ([3]; 5 mg/kg orally): -43%
% inhibition of aggregation ([3]; 10 mg/kg orally): -74%
fatality (conventional mice): not a single fatality
toxicity (conventional mice): atoxic
soluble in DMSO to give a solution of (Solubility in DMSO): 10%

Compound: O=C(O)C1Cc2cc(CCNS(=O)(=O)c3ccc(Cl)cc3)ccc2O1 (stereo not drawn) [Compound 4, 5-(2-parachlorobenzenesulphonamidoethyl)-2,3-dihydro-2-benzofurancarboxylic acid monohydrate]
soluble in DMSO to give a solution of (Solubility in DMSO): 10%

Compound: CC(NS(=O)(=O)c1ccc(Cl)cc1)C(=O)c1ccc2c(c1)CC(C(=O)O)O2 (stereo not drawn) [Compound 5, 5-(α-methylparachlorobenzenesulphonamidoacetyl)-2,3-dihydro-2-benzofurancarboxylic acid]
soluble in DMSO to give a solution of (Solubility in DMSO): 10%

Compound: CC(NS(=O)(=O)c1ccc(Cl)cc1)C(O)c1ccc2c(c1)CC(C(=O)O)O2 (stereo not drawn) [Compound 6, 5-(2-Parachlorobenzenesulphonamido-1-hydroxypropyl)-2,3-dihydro-2-benzofurancarboxylic acid]
soluble in DMSO to give a solution of (Solubility in DMSO): 5%

Compound: O=C(O)C1CCc2cc(CCNS(=O)(=O)c3ccc(Cl)cc3)ccc2O1 (stereo not drawn) [Compound 7, 6-(2-Parachlorobenzenesulphonamidoethyl)-2-chromancarboxylic acid]
IC50 [1]: 500 nM
soluble in DMSO to give a solution of (Solubility in DMSO): 20%

Compound: O=C(O)C1Oc2ccc(CCNS(=O)(=O)c3ccc(Cl)cc3)cc2O1 (stereo not drawn) [Compound 8, 5-(2-Parachlorobenzenesulphonamidoethyl)-1,3-benzodioxole-2-carboxylic acid]
soluble in DMSO to give a solution of (Solubility in DMSO): 20%

Compound: O=C(O)C1Cc2ccc(CCNS(=O)(=O)c3ccc(Cl)cc3)cc2C1 (stereo not drawn) [Compound 9, 5-(2-parachlorobenzenesulphonamidoethyl)-2-indanecarboxylic acid]
soluble in DMSO to give a solution of (Solubility in DMSO): 10%

Compound: O=C(O)C1Cc2cc(CCNS(=O)(=O)c3ccc(Cl)cc3)ccc2S1 (stereo not drawn) [Compound 10, 5-(2-Parachlorobenzenesulphonamidoethyl)-2,3-dihydro-2-benzothiophenecarboxylic acid]
soluble in DMSO to give a solution of (Solubility in DMSO): 20%

Compound: O=C(O)c1cc2cc(CCNS(=O)(=O)c3ccc(Cl)cc3)ccc2o1 [Compound 11, 5-(2-Parachlorobenzenesulphonamidoethyl)-2-benzofurancarboxylic acid]
IC50 [1]: 2000 nM
soluble in DMSO to give a solution of (Solubility in DMSO): 5%

Compound: O=C(O)C1Cc2cc(C(CNS(=O)(=O)c3ccc(Cl)cc3)=NO)ccc2O1 (stereo not drawn) [Compound 13]
soluble in DMSO to give a solution of (Solubility in DMSO): 10%

Compound: CON=C(CNS(=O)(=O)c1ccc(Cl)cc1)c1ccc2c(c1)CC(C(=O)O)O2 (stereo not drawn) [Compound 14, 5-(2-parachlorobenzenesulphonamido-1-methoxyiminoethyl)-2,3-dihydro-2-benzofurancarboxylic acid]
soluble in DMSO to give a solution of (Solubility in DMSO): 10%

Compound: Cc1ccc(S(=O)(=O)N(C)CC(=O)c2ccc3c(c2)CC(C(=O)O)O3)cc1 (stereo not drawn) [Compound 16, 5-(N-methylparatoluenesulphonamidoacetyl)-2,3-dihydro-2-benzofurancarboxylic acid]
soluble in DMSO to give a solution of (Solubility in DMSO): 10%

Compound: O=C(O)C1Cc2cc(CCNS(=O)(=O)c3ccc(Cl)cc3)ccc2O1 (stereo not drawn) [Compound 17, Sodium 5-(2-parachlorobenzenesulphonamidoethyl)-2,3-dihydro-2-benzofurancarboxylate]
solubility (Solubility in water): 15000 µg/mL

Compound: O=C(CNS(=O)(=O)c1ccc(Cl)cc1)c1ccc2c(c1)CC(C(=O)O)O2 (stereo not drawn) [Compound 25, (dl)-Lysine 5-parachlorobenzenesulphonamidoacetyl-2,3-dihydro-2-benzofurancarboxylate trihydrate]
solubility (Solubility in water): 10000 µg/mL

Results, then the molecule that gave them:

solubility (Solubility in water): 10000 µg/mL (≈ 24.4 mM)
Compound: O=C(CNS(=O)(=O)c1ccc(Cl)cc1)c1ccc2c(c1)CCC(C(=O)O)O2 (racemic) [Compound 27, dl-Lysine 6-(parachlorobenzenesulphonamidoacetyl)-2-chromancarboxylate]

solubility (Solubility in water): 5000 µg/mL (≈ 12.7 mM)
Compound: O=C(CNS(=O)(=O)c1ccc(Cl)cc1)c1ccc2c(c1)CC(C(=O)O)C2 (racemic) [Compound 29, dl-Lysine 5-(parachlorobenzenesulphonamidoacetyl)-2-indanecarboxylate]

soluble in DMSO to give a solution of (Solubility in DMSO): 25%
solubility in water (Solubility in water): insoluble in water
Compound: CCOC(=O)C1CCc2cc(C(=O)CNS(=O)(=O)c3ccc(Cl)cc3)ccc2O1 (stereo not drawn) [Compound 20, ethyl 6-(parachlorobenzenesulphonamidoacetyl)-2-chromancarboxylate]

soluble in DMSO to give a solution of (Solubility in DMSO): 25%
solubility in water (Solubility in water): insoluble in water
Compound: O=C(CNS(=O)(=O)c1ccc(Cl)cc1)c1ccc2c(c1)CCC(C(=O)O)O2 (stereo not drawn) [Compound 21, 6-(parachlorobenzenesulphonamidoacetyl)-2-chromancarboxylic acid]

soluble in DMSO to give a solution of (Solubility in DMSO): 25%
solubility in water (Solubility in water): insoluble in water
Compound: O=C(CNS(=O)(=O)c1ccccc1)c1ccc2c(c1)CC(C(=O)O)O2 (stereo not drawn) [Compound 22, 5-(benzenesulphonamidoacetyl)-2,3-dihydro-2-benzofurancarboxylic acid]

soluble in DMSO to give a solution of (Solubility in DMSO): 30%
Compound: COc1ccc(S(=O)(=O)NCC(=O)c2ccc3c(c2)CC(C(=O)O)O3)cc1 (stereo not drawn) [Compound 23, 5-paramethoxybenzenesulphonamidoacetyl-2,3-dihydro-2-benzofurancarboxylic acid]

soluble in DMSO to give a solution of (Solubility in DMSO): 20%
solubility in water (Solubility in water): insoluble in water
Compound: O=C(CNS(=O)(=O)c1c(F)c(F)c(F)c(F)c1F)c1ccc2c(c1)CC(C(=O)O)O2 (stereo not drawn) [Compound 24, 5-Pentafluorobenzenesulphonamidoacetyl-2,3-dihydro-2-benzofurancarboxylic acid]

solubility (Solubility in water): 10000 µg/mL (≈ 25.3 mM)
Compound: O=C(O)C1CCc2cc(CCNS(=O)(=O)c3ccc(Cl)cc3)ccc2O1 (stereo not drawn) [Compound 26, (dl)-Lysine 6-(2-parachlorobenzenesulphonamidoethyl)-2-chromancarboxylate]

soluble in DMSO to give a solution of (Solubility in DMSO): 15%
solubility in water (Solubility in water): insoluble in water
Compound: O=C(CNS(=O)(=O)c1ccc(Cl)cc1)c1ccc2c(c1)CC(C(=O)O)C2 (stereo not drawn) [Compound 28, 5-(Parachlorobenzenesulphonamidoacetyl)-2-indanecarboxylic acid]
